In article PMC3527483, “Phospholipid Mediated Activation of Calcium Dependent Protein Kinase 1 (CaCDPK1) from Chickpea: A New Paradigm of Regulation” (PLoS ONE, 2012):

Biological target: T1, CaCDPK1 (Cicer arietinum, UniProt Q7XZK5)
T1 construct: gene CDPK1; full ORF in pRSET A (His-tag), expressed in Escherichia coli BL21, Ni-NTA purified under native conditions; tag removal not mentioned
Test: intrinsic tryptophan fluorescence quenching at […] nm
Type: binding
Conditions: PA vesicles (sonicated), 1 mM CaCl2, pH 7.2, 25 °C, 1 µM protein; half-maximal fluorescence change; activator

T1 sequence (Q7XZK5 1-556): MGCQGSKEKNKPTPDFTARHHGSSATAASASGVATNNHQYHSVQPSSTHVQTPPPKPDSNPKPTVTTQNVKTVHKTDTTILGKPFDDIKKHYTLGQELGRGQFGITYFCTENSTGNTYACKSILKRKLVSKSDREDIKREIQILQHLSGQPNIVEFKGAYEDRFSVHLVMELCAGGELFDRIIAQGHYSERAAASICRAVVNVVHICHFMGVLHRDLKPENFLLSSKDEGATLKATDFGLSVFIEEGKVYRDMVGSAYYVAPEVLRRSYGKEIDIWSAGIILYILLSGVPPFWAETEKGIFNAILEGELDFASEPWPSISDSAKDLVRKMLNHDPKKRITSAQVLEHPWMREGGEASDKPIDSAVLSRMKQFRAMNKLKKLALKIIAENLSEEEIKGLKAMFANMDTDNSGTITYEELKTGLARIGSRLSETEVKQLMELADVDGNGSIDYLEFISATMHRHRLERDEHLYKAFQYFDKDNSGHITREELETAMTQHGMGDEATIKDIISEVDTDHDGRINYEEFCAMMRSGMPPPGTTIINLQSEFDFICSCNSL

## 1,2-diacyl-sn-gylcero-3-P sodium salt [PA]
  Kd: 335 nM
